In brackets after ≈: the same amount, converted by molar mass. Entries after “also recorded” stand apart in the source; their conditions may differ. Structures can show the parent of a compound that is named as a salt. Where two headings read alike, the source gives them in different places. Where a SMILES comes first, the peptide text is derived from it. Bridges are numbered along the chain shown (N, C = ends). Roman numbers before positions name the chains, in order. Where no end group is shown, it is not given here. The star is where a group is joined. Palmitoyl = CCCCCCCCCCCCCCCC(=O)*; Myristoyl = CCCCCCCCCCCCCC(=O)*; Lauroyl = CCCCCCCCCCCC(=O)*
What was measured:
Format in all cases: cell-based
[1] = system: Bacillus subtilis ATCC 6633
Experimental: (§1) Minimum inhibitory concentration (MIC) was determined by broth microdilution method on 96-well polypropylene plates, according to Clinical and Laboratory Standards Institute (CLSI) recommendations. All tests were conducted in triplicate and involved six reference strains of the following bacteria: Bacillus subtilis ATCC 6633, Escherichia coli ATCC 25922, Klebsiella pneumoniae ATCC 200603, Pseudomonas aeruginosa ATCC 9027, Staphylococcus aureus ATCC 25923, Staphylococcus epidermidis ATCC 14490 and two reference strains of fungi: Candida albicans ATCC 10231 and Candida tropicalis PCM 2681. Concentrations of applied peptides ranged from 512 to 1 µg/mL. Two microbiological media were used: Mueller–Hinton Broth for bacteria and Sabouraud Dextrose Broth for fungi. Incubation took 18 h at 37 °C and 48 h at 27 °C respectively. MIC was taken as the lowest concentration of a peptide where the visible growth of microbes was inhibited.

[2] = system: Candida albicans ATCC 10231
Experimental: as §1

[3] = system: Candida tropicalis PCM 2681
Experimental: as §1

[4] = system: Escherichia coli ATCC 25922
Experimental: as §1

[5] = system: Klebsiella pneumoniae ATCC 200603
Experimental: as §1

[6] = system: Pseudomonas aeruginosa ATCC 9027
Experimental: as §1

[7] = system: Staphylococcus aureus ATCC 25923
Experimental: as §1

[8] = system: Staphylococcus epidermidis ATCC 14490
Experimental: as §1

[9] = system: all microorganisms tested; test: TLC direct bioautography (TLC-DB) with resazurin; details: crude peptide, bacteria 37 °C 5 h, fungi 27 °C 7 h, resazurin 4 mg/mL (0.1 % Triton X-100); for TLC-DB with separation: zones after resazurin: 4 µL of 5 mg/mL, n-butanol/acetone/acetic acid/5 % ammonia/water 4.5:1.5:1:1:2; for TLC-DB without separation: appearance of spot after resazurin: 10 µL of 5 mg/mL applied directly on TLC plate, no development
Experimental: Direct bioautography assays to choose the most suitable and efficient stationary phase were performed on the following TLC plates: TLC Silica gel 60 RP-18 F254S (Merck), HPTLC-Platten Nano-SIL 20 UV254 (Macherey–Nagel), HPTLC Nano-ADAMANT UV254 (Macherey–Nagel) and TLC Aluminium oxide 60 F254 (Merck). The plates were sealed separately and autoclaved at 121 °C for 15 min. Peptide samples were dissolved in the solution of methanol and distilled water (75:25). 4 μL of each sample (5 mg/mL) was applied on the TLC plate. Separation was performed using a mobile phase consisting of n-butanol, acetone, acetic acid, 5 % ammonia and distilled water (4.5:1.5:1:1:2 v/v/v/v/v). Moreover, samples without separation were also investigated. In this case 10 µL of each sample was applied directly on the TLC plate and dried. All processes were performed under sterile conditions in the laminar flow cabinet. Microbiological assays were conducted using fivefold dilution of overnight culture of bacteria and a 48-h culture of fungi. After evaporation of eluents, TLC plates were sterilized under UV for 15 min and dipped into previously prepared inoculums of microorganisms for 20 s. Subsequently they were placed in a sterile Petri dish and incubated—bacteria at 37 °C for 5 h and fungi at 27 °C for 7 h. To visualize the growth inhibition zones, the plates were sprayed with 4 mg/mL (0.1 % Triton X-100) of a cell viability reagent, resazurin salt solution (Sigma-Aldrich).
To determine the usefulness of the TLC layer material, preliminary separation experiments were carried out. […] RP-18 layer’s stability was affected by TLC-bioautography procedures, resulting in material disruption. On the other hand, aluminum oxide layer was stable enough, however it gave low quality separation. Therefore, Nano-Sil and Nano-ADAMANT layers were chosen as the most suitable for TLC-DB of synthetic antimicrobial peptides. Mobile phase consisting of n-butanol, acetone, acetic acid, 5 % ammonia and distilled water (4.5:1.5:1:1:2 v/v/v/v/v) provided the best separation of tested compounds. Moreover, the influence of TFA content among crude peptides was also investigated. In this case all tested compounds were lyophilized from 0.1 mM HCl for three times before application on TLC plate in order to exchange the TFA to chloride counter ion. Nevertheless, the obtained results were the same. Assays with (Fig. 1) and without separation (Fig. 2) were performed simultaneously. Growing microorganisms that adhered to the surface of the TLC plate reduced the dye to pink resorufin. […] The Rf values of non-viable cell area were the same for purified compounds.

[10] = system: all the tested species of bacteria and fungi; test: Broth microdilution, summary over all strains; details: summary of Tables 1, 2
Experimental: as §1

[11] = broth microdilution, 96-well polypropylene plates, Mueller-Hinton Broth, 18 h at 37 °C, peptide 512 to 1 µg/mL, triplicate, visible growth
[12] = broth microdilution, 96-well polypropylene plates, Sabouraud Dextrose Broth, 48 h at 27 °C, peptide 512 to 1 µg/mL, triplicate, visible growth

| Compound | MIC against B. subtilis ATCC 6633 [1, 11] [µg/mL] | MIC against C. albicans ATCC 10231 [2, 12] [µg/mL] | MIC against C. tropicalis PCM 2681 [3, 12] [µg/mL] | MIC against E. coli ATCC 25922 [4, 11] [µg/mL] | MIC against K. pneumoniae ATCC 200603 [5, 11] [µg/mL] | MIC against P. aeruginosa ATCC 9027 [6, 11] [µg/mL] | MIC against S. aureus ATCC 25923 [7, 11] [µg/mL] | MIC against S. epidermidis ATCC 14490 [8, 11] [µg/mL] | MIC against B. subtilis ATCC 6633 ([1]; ATCC 6633, 18 h) [µg/mL] | MIC against C. albicans ATCC 10231 ([2]; ATCC 10231, 48 h) [µg/mL] | MIC against C. tropicalis PCM 2681 ([3]; PCM 2681, 48 h) [µg/mL] | MIC against E. coli ATCC 25922 ([4]; ATCC 25922, 18 h) [µg/mL] | MIC against K. pneumoniae ATCC 200603 ([5]; ATCC 200603, 18 h) [µg/mL] | MIC against P. aeruginosa ATCC 9027 ([6]; ATCC 9027, 18 h) [µg/mL] | MIC against S. aureus ATCC 25923 ([7]; ATCC 25923, 18 h) [µg/mL] | MIC against S. epidermidis ATCC 14490 ([8]; ATCC 14490, 18 h) [µg/mL] | TLC-DB with separation: zones after resazurin [9] | TLC-DB without separation: appearance of spot after resazurin [9] | antimicrobial activity among all the tested species of bacteria and fungi [10] |
| --- | --- | --- | --- | --- | --- | --- | --- | --- | --- | --- | --- | --- | --- | --- | --- | --- | --- | --- | --- |
| KWKLFKKIGAVLKVL-NH2 [CAMEL] | 2 | 128 | 256 | 2 | 2 | 256 | 4 | 1 |  |  |  |  |  |  |  |  |  |  |  |
| CCCCCCCCCCCC(=O)N[C@@H](CSSC[C@H](NC(=O)CCCCCCCCCCC)C(=O)N[C@@H](CCCCN)C(=O)N[C@@H](CCCCN)C(N)=O)C(=O)N[C@@H](CCCCN)C(=O)N[C@@H](CCCCN)C(N)=O [Laur-CKK-NH2 dimer] (I: Lauroyl-Cys-Lys-Lys-NH2 / II: Lauroyl-Cys-Lys-Lys-NH2; disulfide I:1-II:1) |  |  |  |  |  |  |  |  | 2 (≈ 1.79 µM) | 512 (≈ 459 µM) | >512 | 8 (≈ 7.17 µM) | 8 (≈ 7.17 µM) | 512 (≈ 459 µM) | 8 (≈ 7.17 µM) | 2 (≈ 1.79 µM) | two blue spots; also recorded: two inhibition zones | did not reduce resazurin |  |
| QQRFEWEFEQQ-NH2 [p11] | >512 | >512 | >512 | >512 | >512 | >512 | >512 | >512 |  |  |  |  |  |  |  |  |  |  |  |
| CCCCCCCCCCCCCCCC(=O)N[C@@H](CCCCN)C(=O)NCC(=O)N[C@@H](CCCCN)C(N)=O [Pal-KGK-NH2] (Palmitoyl-Lys-Gly-Lys-NH2) |  |  |  |  |  |  |  |  | 2 (≈ 3.52 µM) | 64 (≈ 113 µM) | >512 | 8 (≈ 14.1 µM) | 16 (≈ 28.1 µM) | 64 (≈ 113 µM) | 16 (≈ 28.1 µM) | 4 (≈ 7.03 µM) |  | did not reduce resazurin |  |
| GLFDVIKKVASVIGGL-NH2 [Citropin 1.1] |  |  |  |  |  |  |  |  | 4 | 128 | 128 | 32 | 128 | 256 | 16 | 8 |  |  |  |
| CCCCCCCCCCCCCCCC(=O)N[C@@H](CCCCNC(=O)C(F)(F)F)C(=O)N[C@@H](CCCCNC(=O)C(F)(F)F)C(N)=O [Pal-K(TFA)K(TFA)-NH2] |  |  |  |  |  |  |  |  | >512 | >512 | >512 | >512 | >512 | >512 | >512 | >512 |  |  | no antimicrobial activity |
| CCCCCCCCCCCCCCCC(=O)N[C@@H](CCCCN)C(=O)N[C@@H](CCCCN)C(N)=O [Pal-KK-NH2] |  |  |  |  |  |  |  |  | 2 (≈ 3.91 µM) | 128 (≈ 250 µM) | 128 (≈ 250 µM) | 8 (≈ 15.6 µM) | 16 (≈ 31.3 µM) | 128 (≈ 250 µM) | 8 (≈ 15.6 µM) | 4 (≈ 7.82 µM) |  | did not reduce resazurin |  |
| CC[C@H](C)[C@H](N)C(=O)N[C@@H](CS)C(=O)N[C@@H](Cc1c[nH]cn1)C(=O)N[C@@H](Cc1c[nH]cn1)C(=O)N[C@@H](CS)C(=O)N[C@H](C(=O)O)[C@@H](C)CC [ICHHCI-OH] (H-ICHHCI-OH; N-terminus assumed) | >512 | >512 | >512 | >512 | >512 | >512 | >512 | >512 |  |  |  |  |  |  |  |  | white reduction zone; also recorded: white inhibition zone | soft white inhibition zone | no antimicrobial activity |
| CCCCCCCCCCCCCC(=O)N[C@@H](CCCCN)C(=O)NCC(=O)N[C@@H](CCCCN)C(N)=O [Mir-KGK-NH2] (Myristoyl-Lys-Gly-Lys-NH2) |  |  |  |  |  |  |  |  | 2 (≈ 3.7 µM) | 128 (≈ 237 µM) | 256 (≈ 473 µM) | 64 (≈ 118 µM) | 128 (≈ 237 µM) | >512 | 16 (≈ 29.6 µM) | 4 (≈ 7.4 µM) |  | did not reduce resazurin |  |

— PMC4854934, “Rapid Screening of Antimicrobial Synthetic Peptides” (International Journal of Peptide Research and Therapeutics, 2015)
